Tests used:
[1] = target: T1, Ephrin type-A receptor 6 (Mus musculus, UniProt Q62413); assay: Displacement of biotinylated Fc-tagged ephrin-A1 from recombinant N/C-terminal 6-his tagged mouse EphA6 (Ser28 to Gln546 residues) preincubated for 1 hr followed by ephrin-A1-Fc addition and measured after 4 to 5 hrs by ELISA assay
T1 sequence (Q62413 whole entry): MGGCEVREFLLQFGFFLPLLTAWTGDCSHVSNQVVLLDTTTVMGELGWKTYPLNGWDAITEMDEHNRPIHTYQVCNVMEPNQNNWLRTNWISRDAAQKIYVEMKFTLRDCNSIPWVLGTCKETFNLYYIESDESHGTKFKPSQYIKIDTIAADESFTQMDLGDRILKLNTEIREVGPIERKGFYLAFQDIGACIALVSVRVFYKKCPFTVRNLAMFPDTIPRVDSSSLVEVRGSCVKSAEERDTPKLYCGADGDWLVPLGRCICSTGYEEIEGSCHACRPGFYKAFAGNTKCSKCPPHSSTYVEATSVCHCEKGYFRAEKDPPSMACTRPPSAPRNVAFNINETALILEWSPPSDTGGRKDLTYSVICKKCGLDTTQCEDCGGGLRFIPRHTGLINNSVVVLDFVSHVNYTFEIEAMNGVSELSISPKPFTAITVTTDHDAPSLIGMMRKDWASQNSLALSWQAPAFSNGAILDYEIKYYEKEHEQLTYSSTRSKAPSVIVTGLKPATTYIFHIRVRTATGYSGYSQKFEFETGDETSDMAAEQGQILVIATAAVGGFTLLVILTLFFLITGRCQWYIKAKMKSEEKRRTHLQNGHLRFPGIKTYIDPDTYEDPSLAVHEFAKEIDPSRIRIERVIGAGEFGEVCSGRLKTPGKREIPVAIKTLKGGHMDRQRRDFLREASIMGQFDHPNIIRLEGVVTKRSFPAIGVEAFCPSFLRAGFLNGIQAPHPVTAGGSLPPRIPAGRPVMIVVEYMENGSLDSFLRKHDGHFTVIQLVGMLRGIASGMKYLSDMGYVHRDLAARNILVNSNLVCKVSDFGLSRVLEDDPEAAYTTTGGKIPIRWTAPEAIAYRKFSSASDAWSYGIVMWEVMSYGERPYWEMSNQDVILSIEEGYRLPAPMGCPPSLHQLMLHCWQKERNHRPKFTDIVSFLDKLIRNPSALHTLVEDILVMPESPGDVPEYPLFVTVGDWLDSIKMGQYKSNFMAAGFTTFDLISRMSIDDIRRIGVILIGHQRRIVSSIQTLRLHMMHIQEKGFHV

[2] = target: Ephrin type-A receptor 5 (Rattus norvegicus, UniProt P54757); assay: Displacement of biotinylated Fc-tagged ephrin-A1 from recombinant N/C-terminal 6-his tagged rat EphA5 (Ser 58 to Gln573 residues) preincubated for 1 hr followed by ephrin-A1-Fc addition and measured after 4 to 5 hrs by ELISA assay
Chain of Ephrin type-A receptor 5 (P54757 whole entry): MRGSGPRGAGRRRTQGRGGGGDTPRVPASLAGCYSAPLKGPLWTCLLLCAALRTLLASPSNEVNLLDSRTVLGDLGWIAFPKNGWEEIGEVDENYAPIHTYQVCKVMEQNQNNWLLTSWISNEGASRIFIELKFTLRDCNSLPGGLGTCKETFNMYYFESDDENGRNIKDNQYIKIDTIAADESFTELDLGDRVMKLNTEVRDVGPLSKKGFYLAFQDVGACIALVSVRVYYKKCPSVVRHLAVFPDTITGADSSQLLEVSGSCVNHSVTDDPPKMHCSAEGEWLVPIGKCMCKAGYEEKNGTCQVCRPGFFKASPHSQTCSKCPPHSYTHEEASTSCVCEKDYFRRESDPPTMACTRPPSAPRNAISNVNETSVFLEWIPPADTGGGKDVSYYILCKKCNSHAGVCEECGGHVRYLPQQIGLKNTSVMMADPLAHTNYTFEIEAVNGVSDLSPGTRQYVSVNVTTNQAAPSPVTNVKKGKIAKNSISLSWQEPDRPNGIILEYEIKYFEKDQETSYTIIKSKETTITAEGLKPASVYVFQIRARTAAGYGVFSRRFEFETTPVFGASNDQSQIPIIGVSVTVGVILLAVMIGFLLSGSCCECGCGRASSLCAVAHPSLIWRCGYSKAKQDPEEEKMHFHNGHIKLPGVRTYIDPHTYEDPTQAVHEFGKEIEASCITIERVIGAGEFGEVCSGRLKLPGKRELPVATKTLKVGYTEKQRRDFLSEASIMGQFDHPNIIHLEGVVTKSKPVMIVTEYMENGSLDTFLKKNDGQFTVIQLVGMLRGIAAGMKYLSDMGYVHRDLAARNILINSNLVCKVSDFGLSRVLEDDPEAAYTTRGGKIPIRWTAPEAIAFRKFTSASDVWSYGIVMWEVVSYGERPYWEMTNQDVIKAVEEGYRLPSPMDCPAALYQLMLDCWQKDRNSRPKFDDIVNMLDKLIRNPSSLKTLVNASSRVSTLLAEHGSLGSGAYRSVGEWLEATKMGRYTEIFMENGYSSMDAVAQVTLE

[3] = target: T2, Ephrin type-B receptor 1 (Rattus norvegicus, UniProt P09759); assay: Displacement of biotinylated Fc-tagged ephrin-B1 from N/C-terminal recombinant rat EphB1 (Met18 to Gln538 residues) preincubated for 1 hr followed by ephrin-B1-Fc addition and measured after 4 to 5 hrs by ELISA assay
T2 sequence (P09759 whole entry): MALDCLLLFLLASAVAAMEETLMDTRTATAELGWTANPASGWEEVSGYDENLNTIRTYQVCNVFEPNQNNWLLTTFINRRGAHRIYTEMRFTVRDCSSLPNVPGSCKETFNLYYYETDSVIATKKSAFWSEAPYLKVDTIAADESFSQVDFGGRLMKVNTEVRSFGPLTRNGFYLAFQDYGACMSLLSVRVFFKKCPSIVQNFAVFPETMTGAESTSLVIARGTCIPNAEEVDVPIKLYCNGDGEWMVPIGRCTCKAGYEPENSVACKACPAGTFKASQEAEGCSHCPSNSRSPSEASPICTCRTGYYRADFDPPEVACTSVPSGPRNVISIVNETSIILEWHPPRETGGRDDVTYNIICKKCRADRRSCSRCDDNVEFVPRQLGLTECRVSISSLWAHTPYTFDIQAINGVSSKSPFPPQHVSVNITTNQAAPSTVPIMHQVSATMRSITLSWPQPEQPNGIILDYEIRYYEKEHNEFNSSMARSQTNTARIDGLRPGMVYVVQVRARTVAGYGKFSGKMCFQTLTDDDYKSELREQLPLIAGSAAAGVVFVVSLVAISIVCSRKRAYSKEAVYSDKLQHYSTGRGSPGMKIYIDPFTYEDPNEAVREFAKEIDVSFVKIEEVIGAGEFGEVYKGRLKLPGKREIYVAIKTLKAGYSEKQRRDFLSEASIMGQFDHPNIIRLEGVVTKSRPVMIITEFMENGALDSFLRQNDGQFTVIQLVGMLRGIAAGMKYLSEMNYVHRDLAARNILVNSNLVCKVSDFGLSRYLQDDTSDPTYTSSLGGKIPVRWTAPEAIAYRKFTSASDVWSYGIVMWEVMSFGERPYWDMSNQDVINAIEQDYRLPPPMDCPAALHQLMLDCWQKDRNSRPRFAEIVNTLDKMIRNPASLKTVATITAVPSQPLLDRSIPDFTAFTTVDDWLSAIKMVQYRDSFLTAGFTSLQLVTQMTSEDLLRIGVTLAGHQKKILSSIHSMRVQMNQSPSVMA

[4] = target: Ephrin type-A receptor 4 (Mus musculus, UniProt Q03137); assay: Displacement of biotinylated Fc-tagged ephrin-A1 from recombinant N/C-terminal 6-his tagged mouse EphA4 (Val20 to Thr547 residues) preincubated for 1 hr followed by ephrin-A1-Fc addition and measured after 4 to 5 hrs by ELISA assay
Chain of Ephrin type-A receptor 4 (Q03137 whole entry): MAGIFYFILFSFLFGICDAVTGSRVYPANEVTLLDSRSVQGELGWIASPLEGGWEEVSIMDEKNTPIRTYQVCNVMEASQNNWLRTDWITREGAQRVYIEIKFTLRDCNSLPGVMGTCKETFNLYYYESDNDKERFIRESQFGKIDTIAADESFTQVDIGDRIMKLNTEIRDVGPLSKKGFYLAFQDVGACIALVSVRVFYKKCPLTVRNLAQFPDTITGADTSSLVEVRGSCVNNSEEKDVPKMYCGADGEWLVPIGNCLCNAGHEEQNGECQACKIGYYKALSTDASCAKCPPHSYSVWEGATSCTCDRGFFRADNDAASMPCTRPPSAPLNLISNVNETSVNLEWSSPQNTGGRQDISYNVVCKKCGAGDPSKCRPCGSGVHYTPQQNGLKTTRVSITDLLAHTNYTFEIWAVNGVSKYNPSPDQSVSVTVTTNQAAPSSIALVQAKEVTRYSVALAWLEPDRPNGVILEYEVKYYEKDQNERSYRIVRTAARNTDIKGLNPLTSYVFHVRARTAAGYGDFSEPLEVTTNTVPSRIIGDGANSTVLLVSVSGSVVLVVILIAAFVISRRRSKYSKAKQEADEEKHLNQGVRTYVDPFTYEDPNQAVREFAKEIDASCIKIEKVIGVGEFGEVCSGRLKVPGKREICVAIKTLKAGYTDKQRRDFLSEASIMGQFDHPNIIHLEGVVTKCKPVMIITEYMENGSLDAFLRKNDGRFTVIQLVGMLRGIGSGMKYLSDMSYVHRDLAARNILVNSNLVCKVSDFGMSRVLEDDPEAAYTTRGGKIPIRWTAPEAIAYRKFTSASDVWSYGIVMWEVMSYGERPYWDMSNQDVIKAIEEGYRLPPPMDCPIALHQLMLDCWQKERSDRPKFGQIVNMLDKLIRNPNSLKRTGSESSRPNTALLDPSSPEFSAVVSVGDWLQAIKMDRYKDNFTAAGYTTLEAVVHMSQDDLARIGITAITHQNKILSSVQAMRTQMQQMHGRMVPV

Row | SMILES | IC50 [1] | IC50 [2] | IC50 [3] | IC50 [4]
1 | C[C@H](CCC(=O)N[C@H](CC(=O)O)Cc1cn(S(=O)(=O)c2ccc(C(F)(F)F)cc2)c2ccccc12)[C@H]1CC[C@H]2[C@@H]3CC=C4C[C@@H](O)CC[C@]4(C)[C@H]3CC[C@]12C | 10 µM | 9.3 µM | > 30 µM | 4.2 µM
2 | C[C@H](CCC(=O)N[C@H](CC(=O)O)Cc1c[nH]c2ccccc12)[C@H]1CC[C@H]2[C@@H]3CC=C4C[C@@H](O)CC[C@]4(C)[C@H]3CC[C@]12C | 2.9 µM | 3 µM | 7.7 µM | 2.8 µM
3 | C[C@H](CCC(=O)N[C@H](CC(=O)O)Cc1cn(S(=O)(=O)c2ccccc2)c2ccccc12)[C@H]1CC[C@H]2[C@@H]3CC=C4C[C@@H](O)CC[C@]4(C)[C@H]3CC[C@]12C | 11 µM | 10 µM | > 30 µM | 6.3 µM

From ChEMBL document CHEMBL5614382, “Discovery of a new 1-(phenylsulfonyl)-1H-indole derivative targeting the EphA2 receptor with antiproliferative activity on U251 glioblastoma cell line” (Eur J Med Chem, 2024)
